Experimental data taken from publication PMC10611619, “[^99mTc]Tc-PentixaTec: development, extensive pre-clinical evaluation, and first human experience” (European Journal of Nuclear Medicine and Molecular Imaging, 2023).
Where two headings read alike, the source gives them in different places. Where a SMILES comes first, the peptide text is derived from it. Side-chain parts run from the residue outwards. [ ]: non-standard residue; d: D form. The star is where a group is joined. 2Nal = N[C@@H](Cc1ccc2ccccc2c1)C(=O)O; dNMeOrn = CN[C@H](CCCN)C(=O)O; 4Abz = Nc1ccc(C(=O)O)cc1; X1 = NCCNCC(CNCCN)C(=O)*; dDap = NC[C@@H](N)C(=O)O

Legend:
[1] = test system: hCXCR4 expressing Chem-1 cells; assay: Dual tracer internalization studies with [^125I]FC-131 as internal reference; assay type: cell-based, human
Experimental: Dual tracer internalization studies using [^125I]FC-131 as internal reference were conducted in hCXCR4 expressing Chem-1 cells in analogy to a previously established protocol. A detailed assay protocol is provided in the supplementary material section.
On the day prior to the experiment, Chem-1 cells were seeded in 24-well-plates at a density of app. 1·10^5 cells per well. On the day of the experiment, the culture medium was removed and the cells were washed once with 250 µL of unsupplemented medium before being left to equilibrate in 200 µL of assay medium (DMEM/F-12 containing 5% BSA) at 37°C for a minimum of 15 min before the experiment. Cells were then coincubated with the respective ^99mTc-labeled compound of interest (0.2 nM) and [^125I]FC-131 (0.2 nM) in the absence (total binding) or presence (non-specific binding) of 100 µM AMD3100 for different time points up to 120 min at 37°C (n=3 wells, respectively, per time point). Incubation was terminated by placing the plate on an ice pack for app. 1 min and by subsequent removal of the incubation medium. Cells were thoroughly rinsed with 250 µL of HBSS. After washing twice with 250 µL of ice cold acid wash buffer (0.02 M NaOAc buffered with AcOH to pH = 5), cells were lysed with 250 µL of 1 N NaOH. The lysate was tranferred to vials and combined with 250 µL of HBSS used for rinsing the wells. Quantification of the amount of free, acid-releasable and internalized ^99mTc- and ^125I-activity was performed using dual isotope protocol on a WIZARD^2® 2480 automatic γ-Counter (Perkin Elmer, Waltham MA, USA).
All data were corrected for non-specific internalization in the presence of […] AMD3100 and were then normalized to the specific internalization observed of the standard radioligand [^125I]FC-131.

[2] = test system: Jurkat xenograft bearing CB17/SCID mice; assay: Biodistribution in Jurkat xenograft-bearing mice, 1 h p.i.; assay type: in vivo; settings: n = 5, mean ± SD
Experimental: Female CB17/SCID mice bearing subcutaneous Jurkat human T cell lymphoma xenografts (for more detailed information, see supplemental material) were injected intravenously with the respective ^99mTc-labeled tracer (5–20 MBq, 0.1–0.2 nmol/mouse) under isofluorane anesthesia and were sacrificed at 1 h post-injection (p.i.). The organs of interest were dissected, and the activity concentration in weighed tissue samples was quantified using a WIZARD^2® 2480 automatic γ-Counter from Perkin Elmer (Waltham MA, USA). Biodistribution data are given in %iD/g and represent means ± SD (groups of n = 4–5 animals). Statistical analysis (t-test) was performed using GraphPad Prism.
To establish tumor xenografts, Jurkat cells (2 – 3x10^7 cells) were suspended in a mixture of RPMI 1640 medium and Matrigel (1/1; v/v) (BD Biosciences, Heidelberg, Germany), and injected subcutaneously into the right shoulder of 6–10 weeks old CB17-SCID mice from either Charles River GmbH (Sulzfeld, Germany) or the in-house mouse breeding facility. As soon as tumors had grown to a diameter of 5–8 mm (4 – 10 weeks after inoculation), mice were used for the experiments.

[3] = In vitro stability in various media (radio-TLC); assay type: in vitro ADME; settings: for percentage of intact tracer: original product formulation
Experimental: Solutions were incubated for up to 13 h at room temperature. Sequential radio-thin layer chromatography was performed after 20 min, 40 min, 100 min, 2.6 h, 3.6 h, 4.4 h, and 13 h of incubation, and the amount of intact ligand was analyzed by integration of the TLC chromatogram.

[4] = Blood clearance / excretion in patients; assay type: in vivo, human; settings: for half-life: human, whole blood, iv
Experimental: [^99mTc]Tc-PentixaTec scans were performed using a dual head gamma camera (GE Discovery NM/CT 670 Pro, Milwaukee, WI, USA). In the four patients undergoing dosimetry, planar dynamic whole body scans were performed 5 min, 30 min, and 1 h with a bed speed of 30 cm/min; 2 h, 3 h, and 5 h with a speed of 12 cm/min; and 24 h with a speed of 5 cm/min after tracer injection. SPECT/CT imaging was performed following the 3-h planar imaging with 60 views and a frame duration of 8 s. Attenuation maps were generated on the basis of low-dose CT.
Venous blood samples (2.7 mL) were drawn directly before each planar scan. A cross-calibrated well-counter (Digibase, Ametek, Oak Ridge, TN, USA) was used to measure activity in the blood samples, resulting in the average activity per mL blood. Plasma half-life was calculated using NUKFIT software.

[5] = Safety monitoring in patients (adverse events); assay type: in vivo, human
Experimental: Five patients (age, 48–72 y, median 66 y) with a history of hematological malignancy underwent imaging after intravenous injection of a median of 558 MBq (range, 417–601) [^99mTc]Tc-PentixaTec. […] Safety was assessed by monitoring adverse events after administration of [^99mTc]PentixaTec.

For `C[C@@H](NC(=O)[C@@H](CCCNC(=N)N)NC(=O)[C@@H](CN)NC(=O)C(CNCCN)CNCCN)C(=O)Nc1ccc(C(=O)NCCC[C@@H]2C(=O)N[C@@H](CCCNC(=N)N)C(=O)N[C@@H](Cc3ccc4ccccc4c3)C(=O)NCC(=O)N[C@H](Cc3ccc(O)cc3)C(=O)N2C)cc1` [[^99mTc]Tc-N4-L6-CPCR4, [^99mTc]Tc-N4-dap-r-a-Abz-CPCR4, metal not drawn] (cyclo([dY][dNMeOrn]([4Abz-dA-dR-dDap-X1])R[2Nal]G)), the “internalized activity in % of total cellular activity” value ([1]; 2 h) was 97%, the “absolute intracellular tracer accumulation” value ([1]; 2 h, 37°, 0.2 nM) was ~40 % of added dose and the “Internalization (% of reference)” value ([1]; 120 min, normalized to specific internalization of [^125I]FC-131, Chem-1 cells) was 694 (120 min) % of reference. The “internalization area under the curve (AUC)” value ([1]; internalization kinetics, Fig. 1) was 3799, the “Biodistribution Tumor (tumor accumulation)” value ([2]; Jurkat xenograft) was 8.6 ± 1.3 %iD/g and the “Biodistribution Muscle” value [2] was 0.3 ± 0.05 %iD/g. For the same compound, the “Biodistribution Spleen” value [2] was 5.6 ± 0.8 %iD/g, the “stability in saline and challenging conditions” value ([3]; diluted with saline, citrate and DTPA, room temperature) was “progressive decomposition” and the “percentage of intact tracer” value ([3]; start) was 94.5%. For the same compound, the “percentage of intact tracer” value ([3]; within 2.5 h) was 90.6%, the “stability in physiological media” value ([3]; whole blood, serum, human serum albumin (2.5 and 5%), 13 h, room temperature) was “fully stable” and the hepatobiliary excretion [4] was “no significant hepatobiliary excretion”. The half-life ([4]; read-out: plasma half-life, median) was 19 min, the half-life ([4]; read-out: plasma half-life, range) was 15 to 25 min and the adverse events ([5]; five patients) was “no adverse events were recorded”. For the same compound, the tolerability ([5]; five patients with hematologic malignancies) was “well tolerated”.
